“Also recorded” adds a separate entry of the source.
How the values were obtained:
[1] = biological target: SULT2B1b (Homo sapiens (Human), UniProt O00204); experiment: LC-MS/MS based in vitro assay (DHEA-sulfate formation); type: biochemical; details: 100 μM compound, 2 hours; mean±s.e.m., n=3
Procedure: LC-MS/MS Based In Vitro Assay. Stock solutions of DHEA (5 mM in DMSO) and compound of interest (5 mM in DMSO) were prepared. […] SULT2B1b was diluted to 1.5 μg/μL in protein storage buffer then down to 0.8 μg/μL in 1× activity assay buffer. 30 μL of 0.8 μg/μL SULT2B1b was added to each reaction. Reactions were incubated for 2 hours at 37° C. with shaking at 250 rpm. To quench, 30 μL reaction mix was added to 30 μL ice cold 0.5% HCl in MeCN, then centrifuged at 13,000 xg at room temperature for 3 min. 50 μL supernatant was transferred to an empty Eppendorf tube and submitted for LC-MS/MS quantification (UIUC Metabolomics Center), along with 5 mM DHEA sulfate standard. Controls: Reaction mix made with DHEA and DMSO in place of compound of interest (DHEA control). […] General LC-MS/MS Quantification Method. Both DHEAS and CS samples were analyzed by 6500 QTRAP (Sciex, Redwood City, CA) liquid chromatography-tandem mass spectrometry. […] The flow rate was 0.3 mL/min. […] The source temperature was 400° C. […] Cholesterol-sulfate and DHEA-sulfate were detected by multiple reaction monitoring (MRM) at m/z 465→97.0 and 367.0→97.0 respectively. Software Analyst 1.7.1 ([…]) was used for data acquisition and analysis.

[2] = system: whole cell CS levels in MCF-7; experiment: Whole cell cholesterol sulfate quantification, MCF-7; type: cell-based, human; details: for whole cell CS levels vs DMSO: MCF-7, 6.25 μM compound, 72 hours
Procedure: (§1) General Whole Cell Cholesterol Sulfate Quantification. 60×15 mm tissue culture dishes were seeded with MCF-7 at 2×10^6 cells/dish or T47D at 1×10^6 cells per dish, 5 mL total media volume, and allowed to adhere overnight. Compounds of interest were dissolved in DMSO. Cells were treated with 25 μL 1.25 mM compound of interest stock (6.25 μM final compound concentration, 0.5% final DMSO concentration) or DMSO for 72 hours. To harvest, media was aspirated, and cells were washed once with PBS before detaching with trypsin. Trypsin was quenched with media. Cells were centrifuged at 300 xg for 3 minutes and supernatant was discarded. Cells were resuspended in media and counted using a Countess 3 automated cell counter (Thermo Fisher Scientific). 1.5×10^6 cells were collected, washed twice with 1 mL PBS, then pelleted and stored at −80° C. until lysis. Cell pellets were resuspended in 200 μL cold 70:30 methanol:water and placed on ice. Cell suspension was sonicated on ice (30%, 10 s on, 20 s off, 1 min total) and continued to be incubated on ice for 30 minutes. Lysate was clarified by centrifugation at 14,100 xg at 4° C. for 30 minutes. 100 μL of supernatant was transferred to an empty Eppendorf tube and submitted for LC-MS/MS quantification (UIUC Metabolomics Center), along with 5 mM cholesterol sulfate sodium salt standard.
as §1, with “Time Course Whole Cell” for “General Whole Cell”, “2×10^6 cells/dish per dish,” for “2×10^6 cells/dish or T47D at 1×10^6 cells per dish,”, “DMSO for 0 (harvested immediately), 4, 8, 24, 48, or 72 hours.” for “DMSO for 72 hours.”
Whole Cell Cholesterol Sulfate Quantification with Compound Removal. 60×15 mm tissue culture dishes were seeded with MCF-7 at 2×10^6 cells/dish, 5 mL total media volume, and allowed to adhere overnight. Compounds of interest were dissolved in DMSO. Cells were treated with 25 μL 1.25 mM compound of interest stock (6.25 μM final compound concentration, 0.5% final DMSO concentration) for 0 hours (harvested immediately) or 24 hours. Media was aspirated and replaced with 5 mL fresh media, then cells were either harvested (24 hour time point) or further incubated. To harvest, media was aspirated, and cells were washed once with PBS before detaching with trypsin. Trypsin was quenched with media. Cells were centrifuged at 300 xg for 3 minutes and supernatant was discarded. Cells were resuspended in media and counted using a Countess 3 automated cell counter (Thermo Fisher Scientific). 1.5×10^6 cells were collected, washed twice with 1 mL PBS, then pelleted and stored at −80° C. until lysis. Cell pellets were resuspended in 200 μL cold 70:30 methanol:water and placed on ice. Cell suspension was sonicated on ice (30%, 10 s on, 20 s off, 1 min total) and continued to be incubated on ice for 30 minutes. Lysate was clarified by centrifugation at 14,100 xg at 4° C. for 30 minutes. […]

[3] = system: T47D cells; experiment: Alamar blue cellular cytotoxicity, T47D; type: cell-based; details: 72 hours
Procedure: Alamar Blue Fluorescence for Cellular Activity (IC50). Cells were seeded per well in a 96-well plate (5000 for MCF-7, 4000 for T47D, 7000 for mouse embryonic fibroblasts) and allowed to adhere before DMSO solutions of compounds were added to each well. Final concentration of DMSO in each well is 1%, final volume: 100 μL. At the end of 72 hours, Alamar Blue solution was added (10 μL of 1 mg resazurin per 10 mL PBS). After 2-4 hours incubation, fluorescence (λexcit.=555 nm, λemission.=585 nm) was measured. The fluorescence of each well was read with a SpectraMax M3 plate reader (Molecular Devices). Percent dead was determined by comparison to a 100% dead control: 100 μM Raptinal treated cells.

Sequence of SULT2B1b (O00204 whole entry): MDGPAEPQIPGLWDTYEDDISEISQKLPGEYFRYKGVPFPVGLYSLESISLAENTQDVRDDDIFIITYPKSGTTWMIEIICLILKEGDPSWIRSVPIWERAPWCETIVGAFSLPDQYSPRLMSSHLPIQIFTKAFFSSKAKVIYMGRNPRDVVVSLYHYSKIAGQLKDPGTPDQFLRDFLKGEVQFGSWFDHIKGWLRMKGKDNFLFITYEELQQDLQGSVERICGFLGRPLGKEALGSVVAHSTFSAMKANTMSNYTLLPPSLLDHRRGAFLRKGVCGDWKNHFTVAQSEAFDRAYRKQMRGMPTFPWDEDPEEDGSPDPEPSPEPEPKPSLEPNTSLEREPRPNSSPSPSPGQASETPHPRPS

Row | SMILES | inhibition at 100 µM [1] [%] | whole cell CS levels vs DMSO [2] | suitable sub-lethal treatment concentration [3] [µM] | whole cell CS levels vs DMSO ([2]; listed as 2-273) | CS level rebound after compound removal ([2]; MCF-7, 6.25 μM for 24 hours, then compound-free media up to 48 hours) | time of constant treatment to significantly decreased whole cell CS levels ([2]; MCF-7, 6.25 μM, time course) [h] | treatment concentration showing a decrease in CS levels (whole cell dose response) ([2]; MCF-7, 72 hour treatment) [µM]
1 | C[C@]12CCC(=O)N(Cc3ccc(Cl)cc3)C1=CC[C@@H]1[C@@H]2C(=O)C[C@]2(C)C(=O)CC[C@@H]12 [Compound 1, (4aR,4bS,6aS,9aS,9bS)-1-(4-chlorobenzyl)-4a,6a-dimethyl-3,4,4a,6,6a,8,9,9a,9b,10-decahydro-1H-indeno[5,4-f]quinoline-2,5,7(4bH)-trione] | 67.8 ± 0.5 | significantly decrease | 6.25 |  |  |  | 
2 | C[C@]12CC[C@H](O)CC1=CC[C@@H]1[C@@H]2CC[C@]2(C)C(n3cnc4ccccc43)=CC[C@@H]12 [Compound 2, Galeterone, reference compound] | 57 ± 0.7 | did decrease CS levels |  |  |  |  | 
3 | C[C@]12CCC(=O)N(Cc3ccc(Br)cc3)C1=CC[C@@H]1[C@@H]2C(=O)C[C@]2(C)C(=O)CC[C@@H]12 [Compound 3, (4aR,4bS,6aS,9aS,9bS)-1-(4-bromobenzyl)-4a,6a-dimethyl-3,4,4a,6,6a,8,9,9a,9b,10-decahydro-1H-indeno[5,4-f]quinoline-2,5,7(4bH)-trione] | 72.8 ± 0.1 | significant decrease | 6.25 | significantly decrease; also recorded: significant (p=0.0003) reduction | did not rebound | ≤ 24 | ≤ 0.097
